The test system of data set [1] is Human immunodeficiency virus 1. Description: Antiviral activity against wild-type HIV1 3B infected in human MT4 cells assessed as protection against virus-induced cytopathic effect after 4 days by MTT assay. The settings on record: Human immunodeficiency virus 1, 3B, MT4, 96 h. The data set is classed as functional, organism-based. In general terms: Protection from cytopathic effect is a common read-out in antiviral testing.

The nature of data set [2]: Selectivity index, ratio of CC50 for human MT4 cells to EC50 for wild-type HIV1 3B infected in human MT4 cells. The note with it: MT4 cells infected with wild-type HIV1 3B, read-out: Ratio CC50/EC50. The data set is classed as toxicity, cell-based.
Data set [3] is described as follows: Cytotoxicity against human MT4 cells assessed as reduction in cell viability after 4 days by MTT assay. It counts as cell-based. A general note: Tetrazolium assays rely on reduction of a dye to a coloured formazan, in cell work by metabolically active cells.
Data set [4] has as its system Human immunodeficiency virus 2. Briefly: Antiviral activity against HIV2 ROD infected in human MT4 cells assessed as protection against virus-induced cytopathic effect after 4 days by MTT assay. The data set is classed as functional, organism-based. The settings on record: Human immunodeficiency virus 2, ISOLATE ROD, MT4, 96 h.
For data set [5], the system named is Human immunodeficiency virus 1. Description: Antiviral activity against HIV1 RES056 harboring K103N/Y181C double mutant infected in human MT4 cells assessed as protection against virus-induced cytopathic effect after 4 days by MTT assay. The settings on record: Human immunodeficiency virus 1, RES056, MT4, 96 h. The data set is classed as functional, organism-based.

Data set [6] in a line: Solubility of the compound in DMSO at 125 ug/ml. The data set is classed as physicochemical.
The target of data set [7] is Human immunodeficiency virus type 1 reverse transcriptase (Human immunodeficiency virus 1, UniProt Q72547). Briefly: Inhibition of recombinant wild-type HIV1 GST-fused reverse transcriptase p66/p51 RNA-dependent DNA polymerase activity expressed in Escherichia coli assessed as reduction in biotin-dUTP incorporation using poly(rA)/oligo(dT)16 as template/primer after 40 mins by PicoGreen dye based spectrofluorometric analysis.

Some results are limits rather than exact numbers.

As a reminder, the EC50 is the concentration needed to bring the measured effect to its halfway point. In general, CC50 refers to the concentration at which the toxic effect on the cells reaches its halfway point. As a reminder, the IC50 is the point on the concentration scale where inhibition reaches its midpoint.

For `CCOC(=O)c1cnc(N2CCN(Cc3cc(C)cc(C)c3)CC2)nc1Oc1c(C)cc(-c2ccc(C#N)cc2)cc1C`, the EC50 in data set [1] and in data set [4] was over 125 µM in each case. For the same compound, the selectivity ratio in data set [2] was 1. Also, the CC50 at 96 h in data set [3] was over 125 µM.
In the case of `CCOC(=O)c1cnc(N2CCN(Cc3ccccc3[N+](=O)[O-])CC2)nc1Oc1c(C)cc(-c2ccc(C#N)cc2)cc1C`, the EC50 in data set [1] and in data set [4] was over 78.7 µM in each case. In addition, the selectivity ratio in data set [2] worked out at 1. Besides, in data set [3], the CC50 at 96 h is at least 78.7 µM.
As to `CCOC(=O)c1cnc(N2CCN(Cc3cccc(C(F)(F)F)c3)CC2)nc1Oc1c(C)cc(-c2ccc(C#N)cc2)cc1C`, the EC50 in data set [1] and in data set [4] was over 125 µM throughout. The selectivity ratio in data set [2] is 1. In addition, the CC50 at 96 h in data set [3] is over 125 µM.
Consider `CCOC(=O)c1cnc(N2CCN(Cc3cc(F)cc(F)c3)CC2)nc1Oc1c(C)cc(-c2ccc(C#N)cc2)cc1C`, for which the concentration giving a half-maximal response (EC50) in data set [1] and in data set [4] was over 125 µM throughout. Further, the selectivity ratio in data set [2] was 1. Further, in data set [3], the CC50 at 96 h is over 125 µM.
In the case of `CCOC(=O)c1cnc(N2CCN(Cc3ccc(Br)cc3)CC2)nc1Oc1c(C)cc(-c2ccc(C#N)cc2)cc1C`, the EC50 in data set [1] and in data set [4] was over 125 µM throughout. Moreover, the selectivity ratio in data set [2] was 1. Moreover, in data set [3], the CC50 at 96 h is over 125 µM.
As for `Cc1ccnc2c1NC(=O)c1cccnc1N2C1CC1` [NEVIRAPINE], the EC50 was 0.1 µM in data set [1] and over 4 µM in data set [5]. In addition, in data set [3], the CC50 at 96 h was over 4 µM.
With `CCOC(=O)c1cnc(N2CCN(Cc3ccc(C(N)=O)cc3)CC2)nc1Oc1c(C)cc(-c2ccc(C#N)cc2)cc1C`, the EC50 in data set [1], in data set [5] and in data set [4] was over 66.5 µM in each case. Further, the solubility result in data set [6] is reported as “Insoluble”. Besides, in data set [7], the IC50 is at least 113 µM. Further, the selectivity ratio in data set [2] is under 1. Moreover, the CC50 at 96 h in data set [3] stood at 66.5 µM.
As for `CCOC(=O)c1cnc(N2CCN(Cc3cccc(C(N)=O)c3)CC2)nc1Oc1c(C)cc(-c2ccc(C#N)cc2)cc1C`, the EC50 is 3.36 µM in data set [1], over 14.8 µM in data set [5] and over 14.8 µM in data set [4]. Besides, the solubility entry in data set [6] is given as “Insoluble”. Also, in data set [7], the IC50 is at least 93.1 µM. Moreover, in data set [2], the selectivity ratio worked out at 4. Moreover, the CC50 at 96 h in data set [3] came out at 14.8 µM.
Take `CCOC(=O)c1cnc(N2CCN(Cc3ccc(C#N)cc3)CC2)nc1Oc1c(C)cc(-c2ccc(C#N)cc2)cc1C`: the EC50 in data set [1] and in data set [4] was over 125 µM each time. For the same compound, the selectivity ratio in data set [2] is 1. In addition, in data set [3], the 50% cytotoxic concentration (CC50) at 96 h was over 125 µM.
Consider `CCOC(=O)c1cnc(N2CCN(Cc3cccc(Br)c3)CC2)nc1Oc1c(C)cc(-c2ccc(C#N)cc2)cc1C`, for which the EC50 in data set [1] and in data set [4] was over 125 µM throughout. For the same compound, in data set [2], the selectivity ratio is 1. In addition, in data set [3], the 50% cytotoxic concentration (CC50) at 96 h is over 125 µM.
Take `CCOC(=O)c1cnc(N2CCN(Cc3ccc(F)cc3)CC2)nc1Oc1c(C)cc(-c2ccc(C#N)cc2)cc1C`: the EC50 was at least 120 µM in data set [1], over 118 µM in data set [5] and over 118 µM in data set [4]. Besides, the solubility result in data set [6] is “Insoluble”. Further, in data set [7], the IC50 is over 120 µM. Also, the selectivity ratio in data set [2] was determined as 1. Moreover, the cytotoxic concentration (CC50) at 96 h in data set [3] is over 118 µM.
On to `CCOC(=O)c1cnc(N2CCN(Cc3ccc(C(=O)OC)cc3)CC2)nc1Oc1c(C)cc(-c2ccc(C#N)cc2)cc1C`, for which the EC50 in data set [1] and in data set [4] was over 125 µM throughout. For the same compound, in data set [2], the selectivity ratio stood at 1. Besides, in data set [3], the CC50 at 96 h is over 125 µM.
Take `CCOC(=O)c1cnc(N2CCN(Cc3cccc(C#N)c3)CC2)nc1Oc1c(C)cc(-c2ccc(C#N)cc2)cc1C`: the EC50 in data set [1] and in data set [4] was over 125 µM in each case. In data set [2], the selectivity ratio was found to be 1. Moreover, the CC50 at 96 h in data set [3] is over 125 µM.
With `CCOC(=O)c1cnc(N2CCN(Cc3cccc(F)c3)CC2)nc1Oc1c(C)cc(-c2ccc(C#N)cc2)cc1C`, the EC50 in data set [1] and in data set [4] was over 125 µM each time. In addition, the selectivity ratio in data set [2] stood at 1. In data set [3], the CC50 at 96 h is over 125 µM.
For the compound `CCOC(=O)c1cnc(N2CCN(Cc3cccc(OC)c3)CC2)nc1Oc1c(C)cc(-c2ccc(C#N)cc2)cc1C`, the EC50 in data set [1] and in data set [4] was over 125 µM in each case. The selectivity ratio in data set [2] came to 1. Further, in data set [3], the CC50 at 96 h was over 125 µM.
Consider `CCOC(=O)c1cnc(N2CCN(Cc3ccccc3F)CC2)nc1Oc1c(C)cc(-c2ccc(C#N)cc2)cc1C`, for which the EC50 in data set [1] and in data set [4] was over 125 µM each time. Besides, the selectivity ratio in data set [2] turned out to be 1. In data set [3], the CC50 at 96 h is over 125 µM.
`CCOC(=O)c1cnc(N2CCN(Cc3ccc(C(F)(F)F)cc3)CC2)nc1Oc1c(C)cc(-c2ccc(C#N)cc2)cc1C`: the EC50 in data set [1] and in data set [4] was over 125 µM throughout. Moreover, the selectivity ratio in data set [2] stood at 1. Besides, the 50% cytotoxic concentration (CC50) at 96 h in data set [3] was over 125 µM.
Take `CCOC(=O)c1cnc(N2CCN(Cc3ccccc3C#N)CC2)nc1Oc1c(C)cc(-c2ccc(C#N)cc2)cc1C`: the EC50 in data set [1] and in data set [4] was over 125 µM throughout. The selectivity ratio in data set [2] turned out to be 1. The 50% cytotoxic concentration (CC50) at 96 h in data set [3] is over 125 µM.
As for `Cc1cc(C#N)cc(C)c1Oc1nc(Nc2ccc(C#N)cc2)nc(N)c1Br` [ETRAVIRINE], the EC50 amounted to 0.0022 µM in data set [1] and 0.015 µM in data set [5]. The CC50 at 96 h in data set [3] is over 2 µM.
`CCOC(=O)c1cnc(N2CCN(Cc3ccc(S(N)(=O)=O)cc3)CC2)nc1Oc1c(C)cc(-c2ccc(C#N)cc2)cc1C`: the EC50 was at least 24.9 µM in data set [1], over 7.93 µM in data set [5] and over 7.93 µM in data set [4]. Further, in data set [6], the solubility result was “Insoluble”. For the same compound, in data set [7], the IC50 was 63.5 µM. For the same compound, the selectivity ratio in data set [2] is 1. In addition, the CC50 at 96 h in data set [3] was at least 7.93 µM.
Turning to `CCOC(=O)c1cnc(N2CCN(Cc3ccc([N+](=O)[O-])cc3)CC2)nc1Oc1c(C)cc(-c2ccc(C#N)cc2)cc1C`, the EC50 in data set [1] and in data set [4] was over 125 µM in each case. Besides, the selectivity ratio in data set [2] was determined as 1. For the same compound, in data set [3], the CC50 at 96 h is over 125 µM.
With `CCOC(=O)c1cnc(N2CCN(Cc3ccccc3C(=O)OC)CC2)nc1Oc1c(C)cc(-c2ccc(C#N)cc2)cc1C`, the EC50 in data set [1] and in data set [4] was over 125 µM throughout. In addition, the selectivity ratio in data set [2] came to 1. Also, in data set [3], the CC50 at 96 h was over 125 µM.
Take `CCOC(=O)c1cnc(N2CCN(Cc3ccccc3Br)CC2)nc1Oc1c(C)cc(-c2ccc(C#N)cc2)cc1C`: the EC50 in data set [1] and in data set [4] was over 125 µM each time. Moreover, the selectivity ratio in data set [2] turned out to be 1. Moreover, the CC50 at 96 h in data set [3] was over 125 µM.
For the compound `CCOC(=O)c1cnc(N2CCN(Cc3cccc([N+](=O)[O-])c3)CC2)nc1Oc1c(C)cc(-c2ccc(C#N)cc2)cc1C`, the half-maximal effective concentration (EC50) in data set [1] is 31.5 µM; in data set [5] it was over 125 µM; in data set [4] it was over 125 µM. Moreover, in data set [6], the solubility result is given as “Insoluble”. Also, the IC50 in data set [7] was 114 µM. For the same compound, the selectivity ratio in data set [2] was over 4. Moreover, in data set [3], the CC50 at 96 h was over 125 µM.
For `CCOC(=O)c1ccc(CN2CCN(c3ncc(C(=O)OCC)c(Oc4c(C)cc(-c5ccc(C#N)cc5)cc4C)n3)CC2)cc1`, the EC50 in data set [1] and in data set [4] was over 125 µM throughout. For the same compound, in data set [2], the selectivity ratio was 1. Moreover, in data set [3], the CC50 at 96 h was over 125 µM.
Regarding `CCOC(=O)c1cnc(N2CCN(Cc3cccc(C(=O)OC)c3)CC2)nc1Oc1c(C)cc(-c2ccc(C#N)cc2)cc1C`, the EC50 in data set [1] and in data set [4] was over 125 µM each time. The selectivity ratio in data set [2] was found to be 1. Besides, the CC50 at 96 h in data set [3] was over 125 µM.
Regarding `CCOC(=O)c1cnc(N2CCN(Cc3ccccc3C(F)(F)F)CC2)nc1Oc1c(C)cc(-c2ccc(C#N)cc2)cc1C`, the EC50 in data set [1] and in data set [4] was over 125 µM in each case. Moreover, the selectivity ratio in data set [2] was determined as 1. The CC50 at 96 h in data set [3] is over 125 µM.
As to `CCOC(=O)c1cnc(N2CCN(Cc3ccc(S(C)(=O)=O)cc3)CC2)nc1Oc1c(C)cc(-c2ccc(C#N)cc2)cc1C`, the EC50 in data set [1] and in data set [4] was over 125 µM in each case. Also, in data set [2], the selectivity ratio came out at 1. Further, the CC50 at 96 h in data set [3] was over 125 µM.

For the origin of these results see ChEMBL document CHEMBL4261617, “Design and synthesis of a novel series of non-nucleoside HIV-1 inhibitors bearing pyrimidine and N-substituted aromatic piperazine” (Bioorg Med Chem Lett, 2018).
